Experimental data: patent US20260176284A1, “Compounds with Anti-KRAS Mutated Tumor Activity” (Trasveda Ltd., priority 2022, published 2026)

How the values were obtained:
[1] = test system: KRAS G12D mutated AGS human gastric adenocarcinoma cells; test: Proliferation inhibition of KRAS G12D mutant AGS cells, another experiment with similar protocol (includes MRTX1133); type: cell-based; details: Homo sapiens
Description: In another experiment, using a protocol similar to the one described above, the inhibitory activity of some representative compounds of the present invention against KRAS G12D mutated AGS human gastric adenocarcinoma cells was determined.
The synthesis of compound MRTX1133 was performed according to the method described in J. Med. Chem. 2022, 65, 4, 3123-3133.

[2] = test system: KRAS-G12D mutated human colon carcinoma cells GP2d; test: Antitumor effect, subcutaneous xenograft of KRAS-G12D mutated human colon carcinoma cells GP2d; type: in vivo; details: BALB/c nude mice, 10 mg/kg, gavage, twice a day; for TGI (%): Day 21
Description: GP2d cells were purchased from Nanjing Kebai Biotechnology Co., Ltd. BALB/c nude mice, female, were purchased from Jiangsu GemPharmatech LLC. GP2d cells were cultured in culture medium containing DMEM and 10% FBS. The cells in the logarithmic growth phase were collected and resuspended in PBS to an appropriate concentration for subcutaneous tumor inoculation in mice. The experimental mice were subcutaneously inoculated on the right posterior side of the back. The inoculation dose of GP2d cells was 1×10^7 cells per mouse, and the cells were resuspended in a 1:1 mixture of PBS and Matrigel (the inoculation volume was 0.1 mL). When the average tumor volume grew to 150 mm^3, the mice were randomly grouped for administration according to the tumor size and body weight. Administration was started immediately after grouping, and the day of administration was regarded as day 0. The administration was carried out twice a day by gavage, at a dose of 10 mg/kg or a solvent control (0.5% Tween 80+99.5% of (0.5% MC (400 cp))). During the experiment, the body weight of the mice and the size of the tumors were measured twice a week.
The formula for calculating the tumor size: Tumor volume (mm^3)=0.5×(long diameter of tumor×(short diameter of tumor)^2).
Relative tumor inhibition rate TGI (%): TGI %=[1−(average tumor volume at the end of administration of the treatment group−average tumor volume at the beginning of administration of the treatment group)/(average tumor volume at the end of administration of the vehicle control group −average tumor volume at the beginning of administration of the vehicle control group)]×100%.

[3] = test system: human pancreatic cancer cells HPAC (carrying KRas G12D mutant protein); test: In vivo pharmacodynamics, subcutaneous xenograft of human pancreatic cancer cells HPAC; details: NOD/SCID mice, 50 mpk, PO; for Tumor volume (mm3) (Day 20): BID × 21; for TGI (%): BID × 21, Day 20
Description: The following materials were used in this experiment: NOD/SCID mice, 6-8 weeks old, female, Jiangsu Ji Cai Yao Kang Biotechnology Co., Ltd.; HPAC cells (carrying KRas G12D mutant protein, ATCC); Captisol (Wuhan Fengyao Tonghui Chemical Products Co., Ltd., Cas #182410-00-0); Sodium acetate (aladdin); MC (sigma, 9004-67-5).
The experiment was carried out as follows: Female NOD/SCID mice aged 6-8 weeks were subcutaneously inoculated with 1-10^7 HPAC cells on the right posterior side of the back, with an inoculation volume of 0.1 mL. When the tumors grew to an average volume of 150 mm^3, the mice were randomly grouped for administration according to the tumor size and body weight. The day of administration was regarded as day 0. The administration was carried out once a day. The test compound was administered by tail vein injection or gavage, with 5 mice in each group at a dose of 10 mg/kg. The control group was administered with an equal volume of the solvent control by tail vein injection or gavage.
During the experiment, the tumor volume and body weight were measured twice a week. The formula for calculating the tumor volume was: Tumor volume (mm^3)=0.5×(tumor major axis×tumor minor axis^2). The average tumor inhibition rate TGI %=[(average tumor volume of the control group−average initial tumor volume of the control group)−(average tumor volume of the administration group−average initial tumor volume of the administration group)]/(average tumor volume of the control group−average initial tumor volume of the control group).

[4] = Mouse pharmacokinetics (IV and PO); type: in vivo; details: 10 mg/kg, male CD-1 mice, PO (gavage), 1 mg/mL at 10 mL/kg, plasma
Description: The pharmacokinetic properties of the compounds of the present invention were evaluated through a mouse pharmacokinetic experiment.
Male CD-1 mice, aged 6-8 weeks old, were purchased from Zhejiang Vital River Laboratory Animal Co., Ltd.
IV administration group: The compound was formulated into a sodium acetate buffer solution (10 mM sodium acetate solution, adjusted to pH 4.0 with acetic acid) containing 20% Captisol (sulfobutyl β-cyclodextrin) so that the final concentration of each compound was 0.6 mg/mL. The drug formulation was injected into the tail vein of CD-1 mice at an injection volume of 5 mL/kg. After administration, blood samples were collected from the submandibular vein or by other appropriate methods at 5 min, 15 min, 30 min, 1 h, 2 h, 4 h, 6 h, 8 h, and 24 h. The blood samples were centrifuged at a low temperature for 6 minutes, and the plasma was collected and stored at −80° C. for testing. The PO administration group formulated the compound into a solvent of 0.5% Tween 80+99.5% (0.5% MC (400 cp)) or 5% DMSO+95% (0.5% MC (400 cp)) so that the final concentration of each compound was 1 mg/mL. The drug formulation was administered to CD-1 mice by gavage at a volume of 10 mL/kg. After administration, blood samples were collected from the submandibular vein or by other appropriate methods at 15 min, 30 min, 1 h, 2 h, 4 h, 6 h, 8 h, and 24 h. The blood samples were centrifuged at a low temperature for 6 minutes, and the plasma was collected and stored at −80° C. for testing.
10 μL of the plasma sample was taken, and 200 μL of methanol containing an internal standard was added as a precipitating agent to precipitate plasma proteins and extract the compounds to be tested in the plasma. After centrifugation at a low temperature, 10 μL of the supernatant was injected, and the drug blood concentration was analyzed by LC-MS/MS. The pharmacokinetic parameters were calculated using Winnonlin based on the drug concentration data at different time points.

## CN1CC[C@H](C(F)F)[C@](C)(COc2nc(N3CC4CCC(C3)N4)c3cc(Cl)c(-c4c(F)ccc5sc(N)c(C#N)c45)c(F)c3n2)C1 (single isomer, unassigned) [Example 325-1]
[1]
  IC50: 2 nM
[2]
  Tumor volume (mm3) (Day 21): 228 mm3
  TGI (%): 91%

## C#Cc1c(F)ccc2cc(O)cc(-c3nc(OC)c4c(N5C[C@H]6CC[C@@H](C5)N6)nc(OC[C@]5(C)CN(C)CC[C@@H]5C(F)F)nc4c3F)c12 [Example 261, 4-(4-((1R,5S)-3,8-diazabicyclo[3.2.1]octan-3-yl)-2-(((3S,4S)-4-(difluoromethyl)-1,3-dimethylpiperidin-3-yl)methoxy)-8-fluoro-5-methoxypyrido[4,3-d]pyrimidin-7-yl)-5-ethynyl-6-fluoronaphthalen-2-ol]
[1]
  IC50: 2 nM
[3]
  Tumor volume (mm3) (Day 20): 117 mm3
  TGI (%): 105%

## C#Cc1c(F)ccc2cc(O)cc(-c3ncc4c(N5C[C@H]6CC[C@@H](C5)N6)nc(OC[C@]5(C)CN(C)CC[C@@H]5C(F)F)nc4c3F)c12 [Example 105, 4-(4-((1R,5S)-3,8-diazabicyclo[3.2.1]octan-3-yl)-2-(((3S,4S)-4-(difluoromethyl)-1,3-dimethylpiperidin-3-yl)methoxy)-8-fluoropyrido[4,3-d]pyrimidin-7-yl)-5-ethynyl-6-fluoronaphthalen-2-ol]
[1]
  IC50: 6 nM
[3]
  Tumor volume (mm3) (Day 20): 122 mm3
  TGI (%): 104%

## C#Cc1c(F)ccc2cc(O)cc(-c3nc(OC)c4c(N5C[C@H]6CC[C@@H](C5)N6)nc(OC[C@]5(C)CN(C)CC/C5=C\F)nc4c3F)c12 [Example 265, 4-(4-((1R,5S)-3,8-diazabicyclo[3.2.1]octan-3-yl)-8-fluoro-2-(((S,E)-4-(fluoromethylene)-1,3-dimethylpiperidin-3-yl)methoxy)-5-methoxypyrido[4,3-d]pyrimidin-7-yl)-5-ethynyl-6-fluoronaphthalen-2-ol]
[1]
  IC50: 2 nM
[3]
  Tumor volume (mm3) (Day 20): 113 mm3
  TGI (%): 106%

## [2H]C([2H])([2H])N1CC/C(=C\F)[C@](C)(COc2nc(N3C[C@H]4CC[C@@H](C3)N4)c3cnc(-c4cc(O)cc5ccc(F)c(C#C)c45)c(F)c3n2)C1 [Example 306, 4-(4-((1R,5S)-3,8-diazabicyclo[3.2.1]octan-3-yl)-8-fluoro-2-(((S,E)-4-(fluoromethylene)-3-methyl-1-(methyl-d3)piperidin-3-yl)methoxy)pyrido[4,3-d]pyrimidin-7-yl)-5-ethynyl-6-fluoronaphthalen-2-ol]
[1]
  IC50: 5 nM
[4]
  AUC(0-inf): 801 ng·h/mL
  AUC(0-t): 759 ng·h/mL
  half-life: 7.17 h

## C#Cc1c(F)ccc2cc(O)cc(-c3nc(C#C)c4c(N5CC6CCC(C5)N6)nc(OC[C@]5(C)CN(C)CC/C5=C\F)nc4c3F)c12 [Example 332]
[1]
  IC50: 1 nM
[2]
  Tumor volume (mm3) (Day 21): 419 mm3
  TGI (%): 70%

## CN1CC/C(=C\F)[C@](C)(COc2nc(N3CC4CCC(C3)N4)c3cc(Cl)c(-c4cccc5sc(N)c(C#N)c45)c(F)c3n2)C1 (single isomer, unassigned) [Example 313-1]
[2]
  Tumor volume (mm3) (Day 21): 256 mm3
  TGI (%): 88%

## [2H]C([2H])([2H])N1CC[C@H](C(F)F)[C@](C)(C([2H])([2H])Oc2nc(N3CC4CCC(C3)N4)c3cc(Cl)c(-c4cccc5sc(N)c(C#N)c45)c(F)c3n2)C1 (single isomer, unassigned) [Example 315-1]
[2]
  Tumor volume (mm3) (Day 21): 325 mm3
  TGI (%): 80%

## [2H]C([2H])([2H])N1CC/C(=C\F)[C@](C)(C([2H])([2H])Oc2nc(N3C[C@H]4CC[C@@H](C3)N4)c3cnc(-c4cc(O)cc5ccc(F)c(C#C)c45)c(F)c3n2)C1 [Example 304, 4-(4-((1R,5S)-3,8-diazabicyclo[3.2.1]octan-3-yl)-8-fluoro-2-(((S,E)-4-(fluoromethylene)-3-methyl-1-(methyl-d3)piperidin-3-yl)methoxy-d2)pyrido[4,3-d]pyrimidin-7-yl)-5-ethynyl-6-fluoronaphthalen-2-ol]
[1]
  IC50: 2 nM
[4]
  AUC(0-inf): 1500 ng·h/mL
  AUC(0-t): 1420 ng·h/mL
  half-life: 8.74 h

## C#Cc1c(F)ccc2cc(O)cc(-c3c(F)cc4c(N5CC6CCC(C5)N6)nc(OC[C@]5(C)CN(C)CC/C5=C\F)nc4c3F)c12 (atropisomer, axis not shown; (Ra)) [Example 77, (Ra)-4-(4-((1R,5S)-3,8-diazabicyclo[3.2.1]octan-3-yl)-6,8-difluoro-2-(((S,E) 4-(fluoromethylene)-1,3-dimethylpiperidin-3-yl)methoxy)quinazolin-7-yl)-5-ethynyl-6-fluoronaphthalen-2-ol]
[1]
  IC50: 4 nM
[3]
  Tumor volume (mm3) (Day 20): 255 mm3
  TGI (%): 83%

## C#Cc1c(F)ccc2cc(O)cc(-c3c(F)cc4c(N5CC6CCC(C5)N6)nc(OC[C@]5(C)CN(C)CC[C@@H]5C(F)F)nc4c3F)c12 (atropisomer, axis not shown; (Ra)) [Example 46-3, (Ra)-4-(4-((1R,5S)-3,8-diazabicyclo[3.2.1]octan-3-yl)-2-(((3S,4S)-4-(difluoromethyl)-1,3-dimethylpiperidin-3-yl)methoxy)-6,8-difluoroquinazolin-7-yl)-5-ethynyl-6-fluoronaphthalen-2-ol]
[1]
  IC50: 7 nM
[4]
  AUC(0-inf): 414 ng·h/mL
  AUC(0-t): 384 ng·h/mL
  half-life: 10.8 h
[3]
  Tumor volume (mm3) (Day 20): 135 mm3
  TGI (%): 102%
